{"source": "patent US20110262395A1", "about": "“SENSORY RECEPTORS FOR CHRONIC FATIGUE AND PAIN AND USES THEREOF” (UNIVERSITY OF UTAH RESEARCH FOUNDATION, priority 2008, published 2011)", "key": {"DRG neurons [1]": {"system": "DRG neurons", "settings": "patch-clamp, previous reports; cited from earlier work"}, "DRG neurons [2]": {"system": "DRG neurons", "test": "Calcium imaging of cultured DRG neurons: percent of neurons responding to applied metabolites or capsaicin", "assay_type": "cell-based, mouse", "settings": "200 nM", "excerpt": "Harvesting/culturing cells/loading cells: Thirty-nine three week old (4 wells of DRG neurons plated from each mouse), C57Bl/6 mice were anesthetized with isoflurane, and euthanized by cervical dislocation. Dorsal root ganglia (DRG) from lumbar regions were removed into HBSS, treated with trypsin, washed with MEM (Invitrogen 51200-038) containing 10% FBS (Hyclone), 2.4% glucose, 1% glutamax (Invitrogen 35050-061) and 1% penicillin/streptomycin (Atlanta Biological B2110). DRG were triturated, pre-plated and incubated at 37° C. for one hour to reduce non-neuronal cells. Neurons were gently swirled and centrifuged (110×g, 5 min). Cells were removed, re-suspended and 30 μL plated onto the 4 center wells of 24-well plates coated with poly-L-lysine and laminin. A 0.5 mm thick silicone ring with a 4 mm diameter opening sealed to the surface of each well reduced the plating area in each well. Following 1 hour, wells were filled with 37° C. culture medium with 10 ng/mL GDNF (Glial Derived Neurotrophic Factor) (Preprotech 450-10). Sixteen to 23 hours after plating, cultures were loaded with Fura-2 AM (Molecular Probes F-1221) fluorescent dye for 40-60 minutes, then washed with pH 7.4 oxygenated observation medium containing no additional ATP (145 mM NaCl, 5 mM KCl, 2 mM CaCl2, 1 mM MgCl2, 1 mM Citrate, 10 mM glucose, 10 mM MES, 10 mM HEPES). The final well volume was 500 μL.\nChoice and concentrations of metabolites: Because the afferent receptors in muscle have been reported to be on the outside of blood vessels supplying muscle, values obtained for muscle interstitium from experiments using cat, rat, and human for muscle contraction evoked by mild to moderate to extreme exercise were used.\nProtons (pH): Values between 7.6 and 6.2 were used spanning the range found in skeletal and cardiac muscle in mammals from above resting values to those found with injury and disease.\nLactate: 1-50 mM lactate was used, a range of values that spans from rest to ischemia in muscles of humans and rats and mice.\nATP: ATP concentrations in muscle interstitium increase from 300 nM at rest to 5 μM with ischemic muscle contraction (Hellsten et al., 1998; Li et al., 2003; Li et al., 2005). These levels were used in the experiments described below. […] To allow for physiological levels of desensitization of possible P2X receptors, freshly prepared ATP at 300 nM was used for at least 30 seconds before any further increases in ATP combined with other metabolites, to establish resting conditions in DRG neurons in these experiments. […] Also used were pH 6.0 and 4.0 without additional increases in metabolites to confirm that the imaging experiments could replicate recent reports using patch-clamp techniques (Leffler et al., 2006).\nCombinations of metabolites applied to mimic naturally occurring conditions: When applied in an escalating series to mimic increases in metabolites that occur with muscle exercise and ischemic muscle exercise, the metabolite values shown in Table 1 were used. The values associated with pH 7.6 are at or below those normally found at rest in the mouse. The values at 7.4 approximate those found at rest. Generally, the low metabolite values associated with pH higher than 7.0 are likely to be non-noxious, while higher metabolite values at pH 7.0 and lower may be associated with pain. These values should bracket the physiological range of metabolites found in skeletal muscle with the last two values (those associated with 6.4 and 6.2) being higher than the physiological range (Bangsbo et al., 1993; Bangsbo et al., 2001; Li et al., 2003; Li et al., 2005; Reeh and Kress, 2001; Steinhagen et al., 1976).\nDi-I labeling: In some experiments, neurons were identified as innervating muscle by prior muscle labeling with Di-I. Twelve 7-9 day old mice were anesthetized by cooling. […]"}}, "note": "Several values for one entry are separate records, joined by “and”; a condition that tells them apart may be missing. Equal entries are not always repeated.", "data": [{"smiles": "COc1cc(CNC(=O)CCCC/C=C/C(C)C)ccc1O", "note": "[capsaicin]", "values": [{"measurement": "capsaicin responses in DRG neurons, percent", "setting": "DRG neurons [1]", "result": "36% and 20%"}, {"measurement": "percentage of DRG neurons responding with rapid calcium increase", "setting": "DRG neurons [2]; all DRG neurons", "result": "50.9±4.2", "unit": "%"}, {"measurement": "percentage of DRG neurons responding with rapid calcium increase", "setting": "DRG neurons [2]; all muscle labeled neurons", "result": "48.8 ± 5.8", "unit": "%"}, {"measurement": "percentage of DRG neurons responding with rapid calcium increase", "setting": "DRG neurons [2]; metabolite-responding DRG neurons", "result": "71.9 ± 4.2", "unit": "%"}, {"measurement": "percentage of DRG neurons responding with rapid calcium increase", "setting": "DRG neurons [2]; muscle labeled metabolite responders", "result": "63.4 ± 5.8", "unit": "%"}]}]}
